We go through 24 compounds from US8674113B2, “Compounds” (Boehringer Ingelheim International GmbH, priority 2010, dated 2014).

Where two headings read alike, the source gives them in different places.

In test [1] the target is recombinant human mPGES-1 (Homo sapiens (Human), UniProt O14684). The test can be described thus: mPGES-1 enzyme assay (HTRF detection of PGE2). Type of test: biochemical. On the procedure: Microsomes from Rosetta E. coli bacteria expressing recombinant human mPGES-1 can be derived as described below:
Inoculate 5 ml LB with Ampicilin (50 μg/ml) and Chloramphenicol (34 μg/ml) with bacteria from freeze culture. Incubate 8 h at 37° C. with 200 rpm. Thereafter, inoculate 500-1000 ml LB containing Amp and Chloro with the 5 ml on culture and grow to OD640 of 0.8-1.0. Chill the culture to +4° C. before induction. Induce the culture with IPTG at a final concentration of 400 μM. Express the protein at room temp 18-23° C. with 200 rpm shaking over night.
The following steps can be performed on the following day: • 1. Spin down the cells in 250 ml centrifuge flasks for 15 min at 7000 rpm (Beckmann Coulte Avanti J-E centrifuge) • 2. Dissolve the pellet from 250 ml culture in 12.5 ml homogenization buffer • 3. (15 mM Tris-HCL pH8, 1 mM EDTA pH8, […], 2.5 mM GSH, 1 Tablet Protease inhibitor per 50 ml buffer) • 4. Disintegrate the cells by sonication, 5×10 seconds at 48% amplitude of a 750 W sonifier • 5. Add 2.5 ml MgCl2 (100 mM) and DNase 12.5 μl (0.8 mg/ml) and incubate on ice for 30 min • 6. Spin down the bacteria debris and save the supernatant, 7000 rpm for 15 min • 7. Isolate the protein containing membranes in the supernatant by ultracentrifugation 120000×g for 2 hour at 4° C. (Sorvall T880 rotor). • 8. Discard the supernatant and dissolve the pellet in 20 mM Potassium phosphate buffer pH7.4 (KH2PO4 and K2HPO4) buffer by sonication (5×10 s, 30% of a 50 W sonifier) and aliquot the enzyme and store aliquots at −80° C.
Before each experiment is performed an aliquot of the enzyme is thawed and it can then be dissolved in 0.1 M Potassium phosphate buffer pH7.4 (KH2PO4 and K2HPO4) buffer containing 2.5 mM GSH.
The aim of this assay is to determine the affinity of a test compound for the mPGES-1 enzyme.
47 μl of recombinant human mPGES-1 (˜0.5 μg protein/well) containing microsomal suspension in a buffer containing GSH, (2.5 mmol/L L-Glutathione reduced, dissolved in 0.1 mol/L Phosphat Buffer pH 7.4) is dispensed in a 384-well plate and thereafter 1 μl of the test compound(s) is/are added and incubated for 25 minutes at room temperature. The enzyme reaction is started by the addition of 2 ul PGH2 (final conc 2 μM) disolved in water-free Diglyme. After 60 seconds the reaction is terminated by addition of a stop solution containing FeCl2 (10 μL 0.074 mol/l FeCl2). The samples are diluted between 1:25 in PBS (Phosphate Buffered Saline). 10 μl of the diluted samples are transferred to 384-well low volume plate. In order to quantify the amount of PGE2 that has been formed, a homogenous time resolved fluorescent (HTRF) detecting of PGE2 has been performed using a commercially available kit from Cisbio according to the manufactures recommendation. This HTRF-based assay has been described in detail (see: Goedken et al., J Biomol Screen, 2008, 13(7), 619-625). Briefly, the diluted samples are mixed with 5 μl PGE2-d2 conjugate and 5 μl anti-PGE2 cryptate conjugate. After an incubation period of the plates over night, the fluorescence is measured by the use of an appropriate microplate reader.
The fluorescence of Europium cryptate (maxex=307 nm, maxem=620 nm) and d2-PGE2 (maxex=620 nm, maxem=665 nm) are measured.
The extent of the specific HTRF is measured as a ratio of the emission intensity at 665 nm vs. that at 620 nm at an excitation puts of 320 nm. The quantification plate contains also wells with different concentrations of PGE2 as calibration curve for the calculation of the PGE2 concentrations from the HTRF ratio values.
From all mPGES enzyme assay the background is subtracted and the IC50 is calculated over a nonlinear regression with conventional software.
(In general: TR-FRET usually uses a lanthanide donor and a delayed reading to cut background.)

The target in the next test is mPGES-1 in A549 cells (Homo sapiens (Human), UniProt O14684). Nature of the test: A549 cell-based assay (PGE2 formation, 50% human serum). The method in brief: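 A549 cells in F-12K with 50% human serum were stimulated 20-24 h with 5 ng/ml IL-1β and 10 nM arachidonic acid in presence of compound or vehicle. PGE2 in the cell-free medium was measured by HTRF, normalised to vehicle (100%). IC50 from 6-8 point titrations.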

Where [2] appears, read: recombinant human mPGES-1 microsomes, PGH2 2 μM, 60 seconds, read-out: mPGES-1 inhibitory effect IC50 in the enzyme assay.
The mark [3] stands for this setting: IL-1β 5 ng/ml, 10 nM arachidonic acid, 20-24 h, read-out: mPGES-1 inhibitory effect IC50 in the cell assay.

Chain of recombinant human mPGES-1 (O14684 whole entry): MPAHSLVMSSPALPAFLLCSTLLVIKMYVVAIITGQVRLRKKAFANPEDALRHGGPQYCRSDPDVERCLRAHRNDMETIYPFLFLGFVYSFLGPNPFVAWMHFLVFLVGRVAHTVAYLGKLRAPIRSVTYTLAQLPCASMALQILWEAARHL
Chain of mPGES-1 in A549 cells (O14684 whole entry): as above

The IC50 is the midpoint of a concentration-inhibition curve. Consider `Cn1c(Nc2c(Cl)ccc(CNC(=O)C(C)(C)C)c2Cl)nc2cc(C(=O)Nc3ccc(F)c(Cl)c3)c(N3CCC(C(F)(F)F)CC3)cc21` [Example 54, N-(3-Chloro-4-fluoro-phenyl)-2-{2,6-dichloro-3-[(2,2-dimethyl-propionylamino)-methyl]-phenylamino}-6-[4-trifluoromethyl-piperidinyl]-1-methyl-1H-benzimidazole-5-carboxylic acid amide], for which the IC50 worked out at 2 nM in test [1] (setting [2]) and 1.4 nM on mPGES-1 in A549 cells (setting [3]).

Take `Cn1c(Nc2c(Cl)ccc(CNC(=O)C(C)(C)C)c2Cl)nc2cc(C(=O)N[C@H]3CC[C@H](C(F)(F)F)CC3)c(N3CCC(C)(O)C3)cc21` (some centres unmarked) [Example 83]: the figures for the IC50 (in test [1] (setting [2]); on mPGES-1 in A549 cells (setting [3])) were 2 nM and 1.4 nM, respectively.

For `Cn1c(Nc2c(Cl)ccc(CNC(=O)C(C)(C)C)c2Cl)nc2cc(C(=O)N[C@H]3CC[C@H](C(F)(F)F)CC3)c(N3CCn4cncc4C3)cc21` [Example 24], the IC50 in test [1] (setting [2]) was 5 nM; on mPGES-1 in A549 cells (setting [3]), 44 nM.

On to `CC(NC(=O)c1cc2nc(Nc3c(Cl)ccc(CNC(=O)C(C)(C)C)c3Cl)n(C)c2cc1N1CCC(F)(F)C1)C(F)(F)F` (centres unmarked) [Example 39], for which the values for the IC50 (in test [1] (setting [2]); on mPGES-1 in A549 cells (setting [3])) were 1 nM and 2 nM, respectively.

With `Cn1c(Nc2c(Cl)ccc(CNC(=O)C(C)(C)C)c2Cl)nc2cc(C(=O)N[C@H]3CC[C@H](C(F)(F)F)CC3)c(N3CCC(O)C3)cc21` (some centres unmarked) [Example 84], the 50% inhibitory concentration (IC50) in test [1] (setting [2]) came to 3 nM; at mPGES-1 in A549 cells (setting [3]), 16 nM.

Consider `Cn1c(Nc2c(Cl)ccc(CNC(=O)C(C)(C)C)c2Cl)nc2cc(C(=O)NCc3ccc(F)cc3C(F)(F)F)c(N3CCC(F)(F)C3)cc21` [Example 44], for which the results for the half-maximal inhibitory concentration (IC50) (in test [1] (setting [2]); at mPGES-1 in A549 cells (setting [3])) were 4 nM and 6 nM, respectively.

Regarding `CN(Cc1ccc(F)cc1)c1cc2c(cc1C(=O)N[C@H]1CC[C@H](C(F)(F)F)CC1)nc(Nc1c(Cl)ccc(CNC(=O)C(C)(C)C)c1Cl)n2C` [Example 110, N-(trans-4-Trifluoromethyl-cyclohexyl)-2-{2,6-dichloro-3-[(2,2-dimethyl-propionylamino)-methyl]-phenylamino}-6-[N-methyl-N-(4-fluorobenzyl)amino]-1-methyl-1H-benzimidazole-5-carboxylic acid amide], the IC50 in test [1] (setting [2]) turned out to be 2 nM; on mPGES-1 in A549 cells (setting [3]) it was 1.6 nM.

For `CC(C)(C)C(=O)NCc1ccc(Cl)c(Nc2nc3cc(C(=O)N[C@H]4CC[C@H](C(F)(F)F)CC4)c(N4CCC(C(F)(F)F)CC4)cc3n2CC(F)F)c1Cl` [Example 75], the figures for the half-inhibitory concentration (IC50) (in test [1] (setting [2]); at mPGES-1 in A549 cells (setting [3])) were 1 nM and 2 nM, respectively.

As for `Cn1c(Nc2c(Cl)ccc(CNC(=O)C(C)(C)C)c2Cl)nc2cc(C(=O)Nc3cccc(C(F)(F)F)n3)c(N3CC[C@@H](F)C3)cc21` [Example 245], the half-inhibitory concentration (IC50) in test [1] (setting [2]) was determined as 3.8 nM; at mPGES-1 in A549 cells (setting [3]), 2.4 nM.

`CN(CC#N)c1cc2c(cc1C(=O)N[C@H]1CC[C@H](C(F)(F)F)CC1)nc(Nc1c(Cl)ccc(CNC(=O)C(C)(C)C)c1Cl)n2C` [Example 112, N-(trans-4-Trifluoromethyl-cyclohexyl)-2-{2,6-dichloro-3-[(2,2-dimethyl-propionylamino)-methyl]-phenylamino}-6-[N-methyl-N-cyanomethyl-amino]-1-methyl-1H-benzimidazole-5-carboxylic acid amide]: the IC50 was 3 nM in test [1] (setting [2]) and 1 nM at mPGES-1 in A549 cells (setting [3]).

Take `CC(C)(C)C(=O)NCc1ccc(Cl)c(Nc2nc3cc(C(=O)NCC(F)(F)C(F)(F)F)c(N4CCC(F)(F)CC4)cc3n2CC(F)F)c1Cl` [Example 74]: the half-maximal inhibitory concentration (IC50) in test [1] (setting [2]) is 3 nM; at mPGES-1 in A549 cells (setting [3]), 4 nM.

As for `Cn1c(Nc2c(Cl)ccc(CNC(=O)[C@](C)(O)C(F)(F)F)c2Cl)nc2cc(C(=O)N[C@H]3CC[C@@H](C(F)(F)F)CC3)c(N3CCC(C(F)(F)F)CC3)cc21` [Example 255], the half-maximal inhibitory concentration (IC50) stood at 4.3 nM in test [1] (setting [2]) and 4 nM at mPGES-1 in A549 cells (setting [3]).

`Cn1c(Nc2c(Cl)ccc(CNC(=O)[C@@](C)(O)C(F)(F)F)c2Cl)nc2cc(C(=O)NC3CC(F)(F)C3)c(N3CCC(C(F)(F)F)CC3)cc21` [Example 258]: the results for the IC50 (in test [1] (setting [2]); on mPGES-1 in A549 cells (setting [3])) were 2.2 nM and 4 nM, respectively.

As for `Cn1c(Nc2c(Cl)ccc(CNC(=O)C(C)(C)C)c2F)nc2cc(C(=O)Nc3ccc(F)c(Cl)c3)c(N3CCC(F)(F)C3)cc21` [Example 51], the concentration for half-maximal inhibition (IC50) is 3 nM in test [1] (setting [2]) and less than 1 nM on mPGES-1 in A549 cells (setting [3]).

For the compound `Cc1nc2c(s1)CN(c1cc3c(cc1C(=O)NCC(F)(F)F)nc(Nc1c(Cl)ccc(CNC(=O)C(C)(C)C)c1Cl)n3C)C2` [Example 33], the IC50 in test [1] (setting [2]) was 3 nM; at mPGES-1 in A549 cells (setting [3]), 8 nM.

`Cn1c(Nc2c(Cl)ccc(CNC(=O)C(C)(C)C)c2Cl)nc2cc(C(=O)N[C@H]3CC[C@@H](C(F)(F)F)CC3)c(N3CC4CC4C3)cc21` (some centres unmarked) [Example 63]: the IC50 is 3 nM in test [1] (setting [2]) and 6 nM at mPGES-1 in A549 cells (setting [3]).

As to `Cn1c(Nc2c(Cl)ccc(CNC(=O)C(C)(C)C)c2Cl)nc2cc(C(=O)Nc3ccc(OC(F)(F)F)cc3)c(N3CC4CC4C3)cc21` (centres unmarked) [Example 64], the IC50 was 3 nM in test [1] (setting [2]) and 2.6 nM on mPGES-1 in A549 cells (setting [3]).

For the compound `Cn1c(Nc2c(Cl)ccc(CNC(=O)[C@](C)(O)C(F)(F)F)c2Cl)nc2cc(C(=O)Nc3ccc(F)c(Cl)c3)c(N3CC[C@@H](F)C3)cc21` [Example 248], the IC50 was found to be 6.7 nM in test [1] (setting [2]) and 6 nM at mPGES-1 in A549 cells (setting [3]).

In the case of `CC1(O)CCN(c2cc3c(cc2C(=O)N[C@H]2CC[C@H](C(F)(F)F)CC2)nc(Nc2c(Cl)ccc(CNC(=O)C(C)(C)F)c2Cl)n3CC(F)F)CC1` [Example 78], the results for the IC50 (in test [1] (setting [2]); at mPGES-1 in A549 cells (setting [3])) were 2 nM and less than 1 nM, respectively.

For the compound `Cn1c(Nc2c(Cl)ccc(CNC(=O)C(C)(C)C)c2Cl)nc2cc(C(=O)N[C@H]3CC[C@H](C(F)(F)F)CC3)c(N3CC(C)(O)C3)cc21` [Example 86], the IC50 in test [1] (setting [2]) was 4 nM; on mPGES-1 in A549 cells (setting [3]), 5 nM.

In the case of `Cn1c(Nc2c(Cl)ccc(CNC(=O)C(C)(C)C)c2Cl)nc2cc(C(=O)Nc3nc(C(F)(F)F)cs3)c(N3CCC(C(F)(F)F)CC3)cc21` [Example 161], the IC50 (in test [1] (setting [2]); on mPGES-1 in A549 cells (setting [3])) was 3 nM in each case.

Regarding `CC(C)(C)C(=O)NCc1ccc(Cl)c(Nc2nc3cc(C(=O)NCC(F)(F)C(F)(F)F)c(N4CCOCC4)cc3n2CC(F)F)c1Cl` [Example 72], the IC50 (in test [1] (setting [2]); on mPGES-1 in A549 cells (setting [3])) was 4 nM in each case.

`CN(CC(F)F)c1cc2c(cc1C(=O)Nc1ccc(F)c(Cl)c1)nc(Nc1c(Cl)ccc(CNC(=O)C(C)(C)C)c1Cl)n2C` [Example 2, N-(4-Fluoro-3-chloro-phenyl)-2-{2,6-dichloro-3-[(2,2-dimethyl-propionylamino)-methyl]-phenylamino}-6-[N-methyl-N-(2,2-difluoroethyl)-amino]-1-methyl-1H-benzimidazole-5-carboxylic acid amide]: the half-maximal inhibitory concentration (IC50) was 2 nM in test [1] (Table C comparison of selected benzimidazoles, read-out: Enzym IC50); 2 nM in test [1] (setting [2]); less than 1 nM on mPGES-1 in A549 cells (setting [3]); less than 1 nM on mPGES-1 in A549 cells (Table C comparison of selected benzimidazoles, read-out: Cell IC50).

For the compound `Cn1c(Nc2c(Cl)ccc(CNC(=O)C(C)(C)C)c2Cl)nc2cc(C(=O)Nc3ccc(OC(F)(F)F)cc3)c(N3CC[C@H](F)C3)cc21` [Example 139], the IC50 was 3 nM in test [1] (setting [2]) and less than 1 nM at mPGES-1 in A549 cells (setting [3]).
